Among the data in BindingDB's records for doi:10.1074/jbc.M803947200 (Universit&Eacute, 2008) are IC50 values, retold here.

Chain of Stromal cell-derived factor 1 (P48061 whole entry): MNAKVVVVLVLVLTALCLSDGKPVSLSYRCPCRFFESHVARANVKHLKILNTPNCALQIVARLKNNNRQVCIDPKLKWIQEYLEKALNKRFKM

The assay concerns the target Stromal cell-derived factor 1 (Homo sapiens, UniProt P48061). The assay can be described thus: Tryptophan Fluorescence Assay. As to conditions: 20 °C. The source says:
Binding of chalcone 4 and chlcone 1 to CSCL12 was examined by monitoring changes in the emission intensity of intrinsic Trp fluorescence of the chemokine.
For the compound `O=C(/C=C/c1ccc(O)cc1)c1ccccc1O` [(E)-1-(2-hydroxyphenyl)-3-(4-hydroxyphenyl)prop-2-en-1-one], the IC50 (usually the point on the concentration scale where inhibition reaches its midpoint) is 24.2 µM.
Under `O=C(/C=C/c1ccccc1)c1ccccc1` [Chalcone, 13] stands > 500 µM; under `COc1cc(/C=C/C(=O)c2ccc(Cl)cc2)ccc1O` [1-(4-Chloro-phenyl)-3-(4-hydroxy-3-methoxy-phenyl)-propenone], 150 µM.
`O=C(/C=C/c1ccc(O)cc1)c1ccccc1` [Chalcone 2] yielded a concentration for half-maximal inhibition (IC50) of 15 µM. This IC50 is about 10-fold lower than that of the compound before.
